Values of other authors in US8028928B2, “Spreader apparatus for sand based formulations” (priority 2007, dated 2011).

Tested on: S. homoeocarpa
Conditions: bent grass blend Cato:Crenshaw (50:50); high disease pressure

## CSC(=O)c1cccc2nnsc12 [ASM, acibenzolar-5-methyl]
  Reduction of number of S. homoeocarpa infection centers: 38%
